Holding throughout (assay): HPLC of itaconate, UV […] nm, Michaelis-Menten fit
What all share (assay type): biochemical

One assay has as its target T1, hACOD1 (Homo sapiens, UniProt A6NK06).
T1 construct: gene ACOD1; aa 4-461, recombinant from E. coli, clone CAD29, purified; homodimer
T1 sequence (A6NK06 4-461): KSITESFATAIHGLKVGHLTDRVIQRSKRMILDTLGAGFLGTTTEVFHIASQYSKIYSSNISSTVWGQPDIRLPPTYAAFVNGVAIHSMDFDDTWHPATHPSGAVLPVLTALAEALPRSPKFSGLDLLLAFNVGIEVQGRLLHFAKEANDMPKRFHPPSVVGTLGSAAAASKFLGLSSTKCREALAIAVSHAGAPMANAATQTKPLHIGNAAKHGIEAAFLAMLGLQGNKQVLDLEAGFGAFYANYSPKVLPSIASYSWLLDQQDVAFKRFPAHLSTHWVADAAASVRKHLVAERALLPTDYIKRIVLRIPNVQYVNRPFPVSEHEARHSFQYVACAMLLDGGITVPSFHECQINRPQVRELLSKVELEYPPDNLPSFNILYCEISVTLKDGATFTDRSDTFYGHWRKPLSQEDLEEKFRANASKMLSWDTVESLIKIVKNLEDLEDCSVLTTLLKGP
The following applies: pH 7.0, 37 °C, 50 mM MOPS, 100 mM NaCl; 95% confidence interval in brackets; other pH 5.5-8.25 also in table.

The target of another assay is T2, mACOD1 (Mus musculus, UniProt P54987).
T2 construct: gene Acod1; aa 4-461, recombinant from E. coli, clone CAD39 (by order of listing), purified; homodimer
T2 sequence (P54987 4-461): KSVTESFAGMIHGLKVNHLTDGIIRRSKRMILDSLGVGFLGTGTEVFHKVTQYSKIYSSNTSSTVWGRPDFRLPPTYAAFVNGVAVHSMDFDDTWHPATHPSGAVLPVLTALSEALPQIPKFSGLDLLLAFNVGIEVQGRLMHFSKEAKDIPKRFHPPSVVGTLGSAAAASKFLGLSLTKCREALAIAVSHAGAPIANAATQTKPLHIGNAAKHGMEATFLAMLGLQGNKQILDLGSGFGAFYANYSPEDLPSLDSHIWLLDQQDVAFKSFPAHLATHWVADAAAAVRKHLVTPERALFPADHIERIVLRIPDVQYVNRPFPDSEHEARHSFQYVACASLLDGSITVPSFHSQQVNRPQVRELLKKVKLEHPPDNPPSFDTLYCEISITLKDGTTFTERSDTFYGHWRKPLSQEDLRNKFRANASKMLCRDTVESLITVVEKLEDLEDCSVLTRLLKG
As to conditions: pH 7.0, 37 °C, 50 mM MOPS, 100 mM NaCl; 95% confidence interval in brackets; other pH 5.5-8.25 also in table.

In another assay the target is T3, aCAD (Aspergillus terreus, UniProt B3IUN8).
T3 construct: gene cad1; aa 12-490, recombinant from E. coli, clone CAD16 (by order of listing), purified; homodimer
T3 sequence (B3IUN8 12-490): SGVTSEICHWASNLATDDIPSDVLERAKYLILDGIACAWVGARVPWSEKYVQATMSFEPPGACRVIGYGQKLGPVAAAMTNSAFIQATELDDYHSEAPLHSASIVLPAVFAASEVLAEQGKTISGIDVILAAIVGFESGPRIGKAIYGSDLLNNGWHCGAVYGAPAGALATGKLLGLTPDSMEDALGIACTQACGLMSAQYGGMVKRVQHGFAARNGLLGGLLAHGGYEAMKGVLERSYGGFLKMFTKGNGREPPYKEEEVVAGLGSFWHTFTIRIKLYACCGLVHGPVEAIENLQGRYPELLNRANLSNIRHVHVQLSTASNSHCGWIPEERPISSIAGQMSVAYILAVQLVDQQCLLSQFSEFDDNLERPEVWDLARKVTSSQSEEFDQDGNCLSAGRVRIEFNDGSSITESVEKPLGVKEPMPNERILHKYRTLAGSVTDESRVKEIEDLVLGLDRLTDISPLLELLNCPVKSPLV
The following applies: pH 7.0, 37 °C, 50 mM MOPS, 100 mM NaCl; 95% confidence interval in brackets; other pH 5.5-7.5 also in table.

Take `O=C(O)/C=C(/CC(=O)O)C(=O)O` [cis-aconitate]: on hACOD1, the “KM (95% confidence interval) (mM) / hACOD1 / kcat (95% confidence interval) (s^-1) / kcat/KM (M^-1 s^-1)” value is listed as 0.23 (0.21-0.26) mM. Besides, the “Michaelis constant (KM)” value at mACOD1 is 0.17 (0.15-0.19) mM. For the same compound, the “KM (95% confidence interval) (mM) / aCAD / kcat (95% confidence interval) (s^-1) / kcat/KM (M^-1 s^-1)” value on aCAD is recorded as 2.1 (1.9-2.5) mM.

Source of the values: publication PMC11814083, “Effect of pH and buffer on substrate binding and catalysis by cis-aconitate decarboxylase” (Scientific Reports, 2025).
